Counter-ions that a name gives are not always drawn.
Test: in vitro
Conditions: rat, gh3-tre-luc cells, AC50 (uM) modified / 1000

Structure (SMILES) | CC50 at 24 h [µM]
Clc1ccc(C(Cl)(Cl)Cl)cn1 [2-Chloro-5-trichloromethylpyridine] | > 90
C/C=C(\C)C(=O)OCCc1ccccc1 [Phenethyl tiglate] | > 90
C#C[C@]1(O)CC[C@H]2[C@@H]3CCC4=CCCC[C@@H]4[C@H]3C(=C)C[C@@]21CC [Desogestrel] | 34.9
CC1(C(=O)Nc2ccc(O)c(Cl)c2Cl)CCCCC1 [Fenhexamid] | 76.7
Cc1ccc(C)c(N)c1 [2,5-Dimethylaniline] | > 90
CN1CCN(C(=O)O[C@H]2c3nccnc3C(=O)N2c2ccc(Cl)cn2)CC1 [Eszopiclone] | > 50
COc1cc([C@@H]2c3cc4c(cc3[C@@H](O[C@@H]3O[C@@H]5CO[C@@H](c6cccs6)O[C@H]5[C@H](O)[C@H]3O)[C@H]3COC(=O)[C@H]23)OCO4)cc(OC)c1O [Teniposide] | 4.5
COc1ccc(C(=O)N2CCN(CC(=O)N3CCOCC3)CC2)cc1 [Molracetam] | > 50
O=C1CC[C@@]2(O)[C@H]3Cc4ccc(O)c5c4[C@@]2(CCN3CC2CC2)[C@H]1O5 [Naltrexone] | > 50
COc1c2c(cc3c1OCO3)CCN(C)C2 [Hydrocotarnine hydrobromide] | > 20
O=C1OC(=O)c2cc(Oc3ccc4c(c3)C(=O)OC4=O)ccc21 [5,5'-Oxybis(2-benzofuran-1,3-dione)] | > 90
CC(C)=CCC/C(C)=C\CO [(2Z)-3,7-Dimethylocta-2,6-dien-1-ol] | > 90
CC(C)c1cccc(C(C)C)c1O [Propofol] | > 90
COc1cc(C[C@H](C)N)c(OC)cc1C [(S)-(+)-2,5-Dimethoxy-4-methylamphetamine hydrochloride] | > 100
Nc1ccc(N)c2ccccc12 [1,4-Naphthalenediamine] | > 90
CCOC(C)(C)C [Ethyl T-butyl ether] | > 90
CO[C@@]1(NC(=O)C2SC(=C(C(N)=O)C(=O)O)S2)C(=O)N2C(C(=O)O)=C(CSc3nnnn3C)CS[C@@H]21 (some centres unmarked) [Cefotetan] | > 20
O=CC(=O)c1ccccc1 [Phenylglyoxal] | > 90
CCCCCCCCCCCCOCCO [2-(Dodecyloxy)ethanol] | > 90
CC(C)=CCOc1c2occc2cc2ccc(=O)oc12 [Imperatorin] | > 50
CCC(C)(CC)c1cc(NC(=O)c2c(OC)cccc2OC)on1 [Isoxaben] | > 90
C=CCCC#N [4-Pentenenitrile] | > 90
OCCN(CCO)c1nc(N2CCCCC2)c2nc(N(CCO)CCO)nc(N3CCCCC3)c2n1 [Dipyridamole] | > 50
CCCCC(CC)COP(=O)(OCC(CC)CCCC)OCC(CC)CCCC (centres unmarked) [Tris(2-ethylhexyl) phosphate] | > 90

Structure (SMILES) | CC50 at 24 h [µM]
C[C@@H]1C[C@H]2[C@@H]3CCC4=CC(=O)C=C[C@]4(C)[C@@]3(F)[C@@H](O)C[C@]2(C)[C@@]1(O)C(=O)COC(=O)c1cccc(S(=O)(=O)O)c1 [Dexamethazone metasulfobenzoate sodium] | > 50
O=C1C=CCCC1 [2-Cyclohexen-1-one] | > 90
CO/N=C(\C(=O)N[C@@H]1C(=O)N2C(C(=O)O)=C(Cn3nnc(C)n3)CS[C@H]12)c1csc(N)n1 [Cefteram] | > 50
CCC(=O)Nc1cccc(N)c1 [N-(3-Aminophenyl)propanamide] | > 90
C=CC(=O)OCCC(=O)O [2-Carboxyethyl acrylate] | > 100
Nc1cc[nH]c(=O)n1 [Cytosine] | > 90
C=CCNC1=C2C[C@@H](C)C[C@H](OC)[C@H](O)[C@@H](C)/C=C(\C)[C@H](OC(N)=O)[C@@H](OC)/C=C\C=C(/C)C(=O)NC(=CC1=O)C2=O [Tanespimycin] | > 50
O=C1c2ccccc2C(=O)C1(O)O [Ninhydrin] | > 90
CCC(=O)OC [Methyl propanoate] | > 90
CC(C[N+](C)(C)C)OC(N)=O (centres unmarked) [Bethanechol] | > 50
CC1(C)[C@H](/C=C(\Cl)C(F)(F)F)[C@@H]1C(=O)O[C@@H](C#N)c1cccc(Oc2ccccc2)c1 [?-Cyhalothrin] | > 80
CC(C)(C)OO [tert-Butyl hydroperoxide (70% Solution in Water)] | > 90
COC(CC(C)CCCC(C)(C)O)OC (centres unmarked) [Hydroxycitronellal dimethyl acetal] | > 90
CCO[Si](CCC#N)(OCC)OCC [3-(Triethoxysilyl)propionitrile] | > 90
CC(CCO)CC(C)(C)C (centres unmarked) [3,5,5-Trimethyl-1-hexanol] | > 90
Cc1ncc([N+](=O)[O-])n1CCO [Metronidazole] | > 50
Cc1cc(O)ccc1O [Methylhydroquinone] | 14.8
C=C1C[C@@H]2[C@H](CC[C@]3(C)C(=O)CC[C@@H]23)[C@@]2(C)C=CC(=O)C=C12 [Exemestane] | > 50
C=CC[N+]1([C@H]2C[C@H]3[C@@H]4CC[C@H]5C[C@H](OC(C)=O)[C@@H](N6CCCCC6)C[C@]5(C)[C@H]4CC[C@]3(C)[C@H]2OC(=O)CC)CCCCC1 [Rapacuronium bromide] | > 50
CCCC(=O)C(=O)O [2-Oxopentanoic acid] | > 90
CN1CC(=O)N2[C@H](c3ccc4c(c3)OCO4)c3[nH]c4ccccc4c3C[C@@H]2C1=O [Tadalafil] | > 50
CC(CO)c1ccccc1 (centres unmarked) [2-Phenylpropan-1-ol] | > 90
O=C(/C=C/c1ccccc1)OC/C=C/c1ccccc1 [3-Phenyl-2-propen-1-yl 3-phenylacrylate] | > 90
CCCCC(CC)COS(=O)(=O)O (centres unmarked) [Sodium ethasulfate] | > 90

Structure (SMILES) | CC50 at 24 h [µM]
O=C(O)c1ccc([N+](=O)[O-])cc1 [4-Nitrobenzoic acid] | > 90
CN(C)CCN(C)CCN(C)C [1,1,4,7,7-Pentamethyldiethylenetriamine] | > 90
CCCCCCCCCCCCCCCC [Hexadecane] | > 90
CC(C)C(=O)Nc1ccc([N+](=O)[O-])c(C(F)(F)F)c1 [Flutamide] | 88.9
CCCCCO [1-Pentanol] | > 90
CN(C)c1ccc(C=O)cc1 [4-Dimethylaminobenzaldehyde] | > 90
Nc1c(S(=O)(=O)O)cc(Br)c2c1C(=O)c1ccccc1C2=O [Bromamine acid sodium salt] | 38.3
O=C1c2ccccc2C(=O)N1CCc1noc(-c2ccc(CN3CCCCCC3)s2)n1 [PharmaGSID_48172] | > 80
CC(C)c1cccc(C(C)C)c1N1C(=O)c2ccc(O)cc2C1=O [5HPP-33] | > 90
COc1ccc(-c2coc3cc(O)cc(O)c3c2=O)cc1 [Biochanin A] | > 90
CC(C)(C)c1ccccc1 [tert-Butylbenzene] | > 90
c1ccc(Oc2ccccc2)cc1 [Diphenyl oxide] | > 90
Clc1ccccc1-c1nc(-c2ccncc2)no1 [Pifexole] | > 50
CCC12COCN1COC2 [Oxazolidine-E] | > 90
CC1(C)NC(=O)N(c2ccc([N+](=O)[O-])c(C(F)(F)F)c2)C1=O [Nilutamide] | > 90
C=CC(=O)OCC(CO)(COCC(COC(=O)C=C)(COC(=O)C=C)COC(=O)C=C)COC(=O)C=C [Dipentaerythritol pentaacrylate] | 1.74
NS(=O)(=O)c1cc(-c2nnn[nH]2)c(NCc2cccs2)cc1Cl [Azosemide] | > 50
C=Cc1ccc(OC(C)=O)cc1 [4-Ethenylphenyl acetate] | > 90
O=c1[nH]c(=O)n([C@H]2C[C@H](O)[C@@H](CO)O2)cc1/C=C/Br [Brivudine] | > 50
CCCC(=O)OC(C)(C)Cc1ccccc1 [1,1-Dimethyl-2-phenylethyl butanoate] | > 90
COc1ccc(Nc2ccc(OC)cc2)cc1 [4,4'-Dimethoxydiphenylamine] | 50.3
COc1cc(-c2nc(NC(=O)c3cc4cc(C)cc(C)c4n3CC(=O)O)sc2CCC2CCCCC2)c(OC)cc1Cl [SR146131 trifluoroacetate (1:1)] | 12.1
FC1(F)C(F)(F)C(F)(F)C2(F)C(F)(C1(F)F)C(F)(F)C(F)(F)C1(F)C(F)(F)C(F)(F)C(F)(F)C(F)(F)C12F (centres unmarked) [Tetracosafluorotetradecahydrophenanthrene] | > 80

Same assay, conditions: rat, gh3-tre-luc cells, AC50 (uM) modified / 1000, Tox21_110001=Tox21_110973; viability, 1 nM T3 present, 24 h

Structure (SMILES) | CC50 at 24 h [µM]
C[C@H]1CCC[C@H](O)CCCCCc2cc(O)cc(O)c2C(=O)O1 [Zearalanol] | > 50

Same assay, conditions: rat, gh3-tre-luc cells, AC50 (uM) modified / 1000, Tox21_110001=Tox21_200667; viability, 1 nM T3 present, 24 h

Structure (SMILES) | CC50 at 24 h [µM]
CC(Cl)C(C)Cl (centres unmarked) [2,3-Dichlorobutane] | > 90

Same assay, conditions: rat, gh3-tre-luc cells, AC50 (uM) modified / 1000, Tox21_110001=Tox21_200907; viability, 1 nM T3 present, 24 h

Structure (SMILES) | CC50 at 24 h [µM]
COC1=CC(=O)O[C@@H](/C=C/c2ccccc2)C1 [Kavain] | > 90

Same assay, conditions: rat, gh3-tre-luc cells, AC50 (uM) modified / 1000, Tox21_110001=Tox21_201203; viability, 1 nM T3 present, 24 h

Structure (SMILES) | CC50 at 24 h [µM]
C[C@H]1CCC[C@H](O)CCCCCc2cc(O)cc(O)c2C(=O)O1 [Zearalanol] | 53.6

Same assay, conditions: rat, gh3-tre-luc cells, AC50 (uM) modified / 1000, Tox21_110001=Tox21_202023; viability, 1 nM T3 present, 24 h

Structure (SMILES) | CC50 at 24 h [µM]
ClCC(Cl)CCl [1,2,3-Trichloropropane] | > 90

Same assay, conditions: rat, gh3-tre-luc cells, AC50 (uM) modified / 1000, Tox21_110001=Tox21_202470; viability, 1 nM T3 present, 24 h

Structure (SMILES) | CC50 at 24 h [µM]
Clc1cc(Cl)c(-c2cc(Cl)c(Cl)cc2Cl)cc1Cl [2,2',4,4',5,5'-Hexachlorobiphenyl] | > 40

Same assay, conditions: rat, gh3-tre-luc cells, AC50 (uM) modified / 1000, Tox21_110001=Tox21_202947; viability, 1 nM T3 present, 24 h

Structure (SMILES) | CC50 at 24 h [µM]
O=C1C(=O)c2cccc3cccc1c23 [Acenaphthenequinone] | > 90

Same assay, conditions: rat, gh3-tre-luc cells, AC50 (uM) modified / 1000, Tox21_110001=Tox21_301908; viability, 1 nM T3 present, 24 h

Structure (SMILES) | CC50 at 24 h [µM]
COP(=S)(OC)Oc1ccc([N+](=O)[O-])cc1Cl [Dicapthon] | > 90

Same assay, conditions: rat, gh3-tre-luc cells, AC50 (uM) modified / 1000, Tox21_110001=Tox21_302209; viability, 1 nM T3 present, 24 h

Structure (SMILES) | CC50 at 24 h [µM]
CCOP(=S)(OCC)Oc1cc(-c2ccccc2)on1 [Isoxathion] | > 90
